Laboratory results as given in patent US11613515B2, “Neuro-attenuating ketamine and norketamine compounds, derivatives thereof, and methods” (Amorsa Therapeutics, Inc., priority 2014, dated 2023).
Counter-ions that a name gives are not always drawn.

Assays:
[1] = cited from earlier work
[2] = test system: NMDA receptor; assay: Patch clamp electrophysiological functional response, NMDA receptor inhibition; assay type: cell-based; conditions: cultural hippocampal rat neurons
[3] = fraction of ketamine activity; cited from earlier work
[4] = Metabolic stability in rat liver microsomes; conditions: NADPH regenerating system, 0 to 60 min
[5] = Pharmacokinetics of deuterated norketamines in rats (tail vein injection); conditions: 0.8 mg/kg, injection into the tail vein
[6] = estimated, background; cited from earlier work

CNC1(c2ccccc2Cl)CCCCC1=O (centres unmarked) [ketamine hydrochloride]
solubility in water [1]: about 200 mg/ml

NC1(c2ccccc2Cl)CCCCC1=O (racemic) [norketamine, (R,S)-2-(2-chlorophenyl)-2-(amino) cyclohexanone]
IC50 [2]: 14.7 µM
activity as compared with ketamine [3]: roughly one third

[2H]C1([2H])CCCC(N)(c2ccccc2Cl)C1=O (centres unmarked) [compound 11]
IC50 [2]: 25.9 µM
increase in half-life compared to non-deuterated norketamine [4]: about 80%
increase of terminal half-life vs norketamine [5]: ~40%

CNC1(c2ccccc2Cl)CCCCC1=O (racemic) [ketamine, (R,S)-2-(2-chlorophenyl)-2-(methylamino) cyclohexanone]
IC50 [2]: 2.2 µM
elimination half-life [6]: 2 to 3 h
